{
  "source": "paper PMC6907063",
  "about": "“The Herb-Drug Pharmacokinetic Interaction of Fluoxetine and Its Metabolite Norfluoxetine with a Traditional Chinese Medicine in Rats by LC-MS/MS” (Evidence-based Complementary and Alternative Medicine : eCAM, 2019)",
  "key": {"in vivo": {"test": "in vivo", "settings": "Sprague-Dawley, rat, po, 1.8 mg/kg"}, "[1]": {"test": "Stability of the analytes in QC samples (LC-MS/MS method validation)", "type": "physicochemical, rat", "settings": "n = 5", "description": "Quality control (QC) samples were prepared in the same way as mentioned above. […] All stability studies were evaluated at low, medium, and high QC levels with five determinations for each test. The relative standard deviations (RSDs) were used to evaluate the stability of the analytes. The RSD was expected to be within ±15.0%."}, "[2]": {"test": "Pharmacokinetics of fluoxetine and its metabolite norfluoxetine in rat plasma after oral fluoxetine with or without CSGS for 14 d (LC-MS/MS)"}, "[3]": {"settings": "rat, in vivo, po, 1.8 mg/kg"}, "[4]": {"settings": "continuous administration of FLU for 2 weeks; cited from earlier work"}},
  "data": [
    {"compound": "CNCCC(Oc1ccc(C(F)(F)F)cc1)c1ccccc1", "note": "(stereo not drawn) [fluoxetine]", "values": [
      {"measurement": "Tmax", "setting": "in vivo", "value": 0.75, "unit": "h"},
      {"measurement": "Cmax", "setting": "in vivo; C max of fluoxetine", "value": 2.19, "unit": "ng/mL"},
      {"measurement": "CL/F", "setting": "in vivo; CLz/F of fluoxetine", "value": 149, "unit": "L/h/kg"},
      {"measurement": "Cmax", "setting": "in vivo; Cmax of fluoxetine", "value": 2.19, "unit": "ng/mL"},
      {"measurement": "MRT last", "setting": "in vivo; MRT (0–t) of fluoxetine", "value": "7.67 ± 1.02", "unit": "h"},
      {"measurement": "half-life", "setting": "in vivo; t1/2z of fluoxetine", "value": "8.95 ± 7.5", "unit": "h"},
      {"measurement": "Measured C, at room temperature for 4 h", "setting": "[1]; QC concentration 1 ng/ml", "value": "1.010 ± 0.028", "unit": "ng/mL"},
      {"measurement": "Measured C, freeze-thaw three cycles", "setting": "[1]; QC concentration 1 ng/ml", "value": "0.997 ± 0.012", "unit": "ng/mL"},
      {"measurement": "Measured C, −20°C for 4 weeks", "setting": "[1]; QC concentration 1 ng/ml", "value": "0.987 ± 0.018", "unit": "ng/mL"},
      {"measurement": "Measured C, at room temperature for 4 h", "setting": "[1]; QC concentration 4 ng/ml", "value": "3.965 ± 0.210", "unit": "ng/mL"},
      {"measurement": "Measured C, freeze-thaw three cycles", "setting": "[1]; QC concentration 4 ng/ml", "value": "3.991 ± 0.212", "unit": "ng/mL"},
      {"measurement": "Measured C, −20°C for 4 weeks", "setting": "[1]; QC concentration 4 ng/ml", "value": "4.012 ± 0.231", "unit": "ng/mL"},
      {"measurement": "Measured C, at room temperature for 4 h", "setting": "[1]; QC concentration 16 ng/ml", "value": "15.832 ± 0.536", "unit": "ng/mL"},
      {"measurement": "Measured C, freeze-thaw three cycles", "setting": "[1]; QC concentration 16 ng/ml", "value": "15.872 ± 0.845", "unit": "ng/mL"},
      {"measurement": "Measured C, −20°C for 4 weeks", "setting": "[1]; QC concentration 16 ng/ml", "value": "15.872 ± 0.654", "unit": "ng/mL"},
      {"measurement": "AUCs (0–∞) of FLU", "setting": "[2]; FLU group (fluoxetine 1.8 mg/kg·d for 14 d)", "value": "12.20 ± 2.67", "unit": "μg/L∗h"},
      {"measurement": "AUCs (0–∞) of FLU", "setting": "[2]; multiple dose group A (CSGS […]·d + fluoxetine 1.8 mg/kg·d)", "value": "11.20 ± 3.86", "unit": "μg/L∗h"},
      {"measurement": "AUCs (0–∞) of FLU", "setting": "[2]; multiple dose group B (CSGS 11.8 g/kg·d + fluoxetine 1.8 mg/kg·d)", "value": "14.54 ± 3.22", "unit": "μg/L∗h"},
      {"measurement": "AUCs (0–∞) of FLU", "setting": "[2]; multiple dose group C (CSGS 23.6 g/kg·d + fluoxetine 1.8 mg/kg·d)", "value": "22.01 ± 4.49", "unit": "μg/L∗h"},
      {"measurement": "AUC (0–∞) of fluoxetine", "setting": "[3]", "value": "12.20 ± 2.67", "unit": "ug/L∗h"}
    ]},
    {"compound": "COc1ccc2c(c1)[C@]13CCCC[C@@H]1[C@H](C2)N(C)CC3", "note": "[dextromethorphan]", "values": [
      {"measurement": "increase of AUC", "setting": "[4]", "value": 27, "unit": "times"}
    ]},
    {"compound": "NCCC(Oc1ccc(C(F)(F)F)cc1)c1ccccc1", "note": "(stereo not drawn) [norfluoxetine]", "values": [
      {"measurement": "Measured C, at room temperature for 4 h", "setting": "[1]; QC concentration 2 ng/ml", "value": "1.943 ± 0.054", "unit": "ng/mL"},
      {"measurement": "Measured C, freeze-thaw three cycles", "setting": "[1]; QC concentration 2 ng/ml", "value": "1.879 ± 0.045", "unit": "ng/mL"},
      {"measurement": "Measured C, −20°C for 4 weeks", "setting": "[1]; QC concentration 2 ng/ml", "value": "1.873 ± 0.044", "unit": "ng/mL"},
      {"measurement": "Measured C, at room temperature for 4 h", "setting": "[1]; QC concentration 4 ng/ml", "value": "3.934 ± 0.186", "unit": "ng/mL"},
      {"measurement": "Measured C, freeze-thaw three cycles", "setting": "[1]; QC concentration 4 ng/ml", "value": "4.012 ± 0.231", "unit": "ng/mL"},
      {"measurement": "Measured C, −20°C for 4 weeks", "setting": "[1]; QC concentration 4 ng/ml", "value": "3.891 ± 0.156", "unit": "ng/mL"},
      {"measurement": "Measured C, at room temperature for 4 h", "setting": "[1]; QC concentration 8 ng/ml", "value": "7.897 ± 0.234", "unit": "ng/mL"},
      {"measurement": "Measured C, freeze-thaw three cycles", "setting": "[1]; QC concentration 8 ng/ml", "value": "7.987 ± 0.341", "unit": "ng/mL"},
      {"measurement": "Measured C, −20°C for 4 weeks", "setting": "[1]; QC concentration 8 ng/ml", "value": "7.871 ± 0.246", "unit": "ng/mL"}
    ]},
    {"compound": "Cc1ncc2n1-c1ccc(Cl)cc1C(c1ccccc1F)=NC2", "note": "[midazolam]", "values": [
      {"measurement": "effect on AUC", "setting": "[4]", "value": "did not affect"}
    ]},
    {"compound": "CC[C@H](C)C(=O)O[C@H]1C[C@@H](C)C=C2C=C[C@H](C)[C@H](CC[C@@H]3C[C@@H](O)CC(=O)O3)[C@H]21", "note": "[lovastatin]", "values": [
      {"measurement": "effect on AUC", "setting": "[4]", "value": "did not affect"}
    ]},
    {"compound": "COc1ccc2[nH]c([S+]([O-])Cc3ncc(C)c(OC)c3C)nc2c1", "note": "(stereo not drawn) [omeprazole]", "values": [
      {"measurement": "increase of AUC", "setting": "[4]", "value": 7.1, "unit": "times"}
    ]}
  ]
}
